According to ChEMBL document CHEMBL1201862, “PubChem BioAssay data set” (2004):
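Each compound was tested at five concentrations against cells in 96-well plates for 48 hours. The concentration for 50% growth inhibition is given as GI50.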 Calls of active or inactive are those of the source. No stated cut-off is given here; in the data, active = GI50 up to about 1.1 µM and inactive = higher.

How the values were obtained:
Assay in all cases: growth of human tumour cells (NCI), 48 h
[1] = test system: 786-0
[2] = test system: ACHN
[3] = test system: BT-549
[4] = test system: CCRF-CEM
[5] = test system: COLO 205
[6] = test system: EKVX
[7] = test system: HCT-15
[8] = test system: HL-60
[9] = test system: MDA-MB-231
[10] = test system: MDA-MB-435
[11] = test system: MDA-N
[12] = test system: MOLT-4
[13] = test system: Malme-3M
[14] = test system: OVCAR-4
[15] = test system: OVCAR-8
[16] = test system: SF-295
[17] = test system: SN12C
[18] = test system: SNB-19
[19] = test system: T47D
[20] = test system: TK-10

With `COc1cccc(C2CC(C)(O)Oc3cc4c(cc32)OCO4)c1` (stereo not given) as the compound, how does the GI50 [1] read?
Its GI50 is 33.7 µM (inactive).

And the GI50 [2]?
The GI50 was 25.9 µM (inactive).

What about the GI50 [3] of the same compound?
Its GI50 is 16.1 µM (inactive).

What about the GI50 [4] of the same compound?
Its GI50 is 47.8 µM (inactive).

What about the GI50 [5] of the same compound?
The GI50 was 20.7 µM (inactive).

And the GI50 [6]?
The GI50 was 36.1 µM (inactive).

And the GI50 [7]?
The GI50 was 7.01 µM.

What about the GI50 [8] of the same compound?
The GI50 was 17.2 µM (inactive).

And the GI50 [9]?
The GI50 was 24.1 µM (inactive).

What about the GI50 [10] of the same compound?
The GI50 was 3.3 µM (inactive).

And the GI50 [11]?
Its GI50 is 2.82 µM (inactive).

And the GI50 [12]?
Its GI50 is 8.97 µM (inactive).

And the GI50 [13]?
The GI50 was 26.2 µM (inactive).

What about the GI50 [14] of the same compound?
The GI50 was 24.2 µM (inactive).

And the GI50 [15]?
The GI50 was 29.6 µM (inactive).

What about the GI50 [16] of the same compound?
Its GI50 is 17.8 µM (inactive).

And the GI50 [17]?
Its GI50 is 27.3 µM (inactive).

What about the GI50 [18] of the same compound?
Its GI50 is 32.6 µM (inactive).

What about the GI50 [19] of the same compound?
Its GI50 is 27.8 µM (inactive).

What about the GI50 [20] of the same compound?
Its GI50 is 21.1 µM (inactive).

What does the source list for `CC(=O)C(=C(c1ccccc1)c1ccccc1)c1ccccc1`?
GI50 [1]: > 100 µM (inactive); GI50 [2]: > 100 µM (inactive); GI50 [3]: > 100 µM (inactive); GI50 [4]: 40.7 µM (inactive); GI50 [5]: > 100 µM (inactive); GI50 [6]: 15.6 µM (inactive); GI50 [7]: 86.7 µM; GI50 [8]: 20.5 µM (inactive); GI50 [9]: > 100 µM (inactive); GI50 [10]: > 100 µM (inactive); GI50 [11]: > 100 µM (inactive); GI50 [12]: 87.5 µM (inactive); GI50 [13]: > 100 µM (inactive); GI50 [14]: 70 µM (inactive); GI50 [15]: > 100 µM (inactive); GI50 [16]: > 100 µM (inactive); GI50 [17]: > 100 µM (inactive); GI50 [18]: > 100 µM (inactive); GI50 [19]: > 100 µM (inactive); GI50 [20]: > 100 µM (inactive)

What does the source list for `CCn1c2ccccc2n2c(=O)c3c(c(C#N)c12)CCCC3`?
GI50 [1]: > 100 µM (inactive); GI50 [2]: > 100 µM (inactive); GI50 [3]: > 100 µM (inactive); GI50 [4]: > 100 µM (inactive); GI50 [5]: > 100 µM (inactive); GI50 [6]: > 100 µM (inactive); GI50 [7]: > 100 µM; GI50 [8]: > 100 µM (inactive); GI50 [9]: > 100 µM (inactive); GI50 [10]: > 100 µM (inactive); GI50 [11]: > 100 µM (inactive); GI50 [12]: > 100 µM (inactive); GI50 [13]: > 100 µM (inactive); GI50 [14]: > 100 µM (inactive); GI50 [15]: > 100 µM (inactive); GI50 [16]: > 100 µM (inactive); GI50 [17]: > 100 µM (inactive); GI50 [18]: > 100 µM (inactive); GI50 [19]: > 100 µM (inactive); GI50 [20]: > 100 µM (inactive)

With `CCCCCCCCCCCCCCCCCCOCC(O)COP(=O)(O)OCC1OC(n2cc(F)c(=O)[nH]c2=O)CC1O` (stereo not given) as the compound, how does the GI50 [1] read?
The GI50 was 1.22 µM (inactive).

What about the GI50 [2] of the same compound?
The GI50 was 0.38 µM (active).

What about the GI50 [3] of the same compound?
Its GI50 is 13.7 µM (inactive).

What about the GI50 [4] of the same compound?
The GI50 was 0.318 µM (active).

And the GI50 [5]?
The GI50 was 5.15 µM (inactive).

And the GI50 [6]?
The GI50 was 37 µM (inactive).

And the GI50 [7]?
Its GI50 is 10.8 µM.

What about the GI50 [8] of the same compound?
Its GI50 is 6.56 µM (inactive).

And the GI50 [9]?
The GI50 was 19.1 µM (inactive).

And the GI50 [10]?
Its GI50 is 17.7 µM (inactive).

And the GI50 [11]?
Its GI50 is 13.4 µM (inactive).

And the GI50 [12]?
The GI50 was 3.02 µM (inactive).

What about the GI50 [13] of the same compound?
The GI50 was 14.4 µM (inactive).

And the GI50 [14]?
Its GI50 is 15.1 µM (inactive).

And the GI50 [15]?
Its GI50 is 1.64 µM (inactive).

And the GI50 [16]?
Its GI50 is 0.682 µM (active).

What about the GI50 [17] of the same compound?
The GI50 was 5.81 µM (inactive).

And the GI50 [18]?
Its GI50 is 10.3 µM (inactive).

What about the GI50 [19] of the same compound?
The GI50 was 2.58 µM (inactive).

What about the GI50 [20] of the same compound?
Its GI50 is 8.93 µM (inactive).

How did the GI50 [1] turn out when `N#Cc1nc2ccccc2nc1N1CCN(c2ccc([N+](=O)[O-])cc2)CC1` was run?
Its GI50 is > 100 µM (inactive).

And the GI50 [2]?
Its GI50 is > 100 µM (inactive).

And the GI50 [3]?
The GI50 was > 100 µM (inactive).

And the GI50 [4]?
Its GI50 is > 100 µM (inactive).

What about the GI50 [5] of the same compound?
The GI50 was > 100 µM (inactive).

And the GI50 [6]?
The GI50 was > 100 µM (inactive).

And the GI50 [7]?
The GI50 was greater than 100 µM.

And the GI50 [8]?
Its GI50 is > 100 µM (inactive).

And the GI50 [9]?
Its GI50 is > 100 µM (inactive).

And the GI50 [10]?
The GI50 was > 100 µM (inactive).

What about the GI50 [11] of the same compound?
The GI50 was > 100 µM (inactive).

And the GI50 [12]?
The GI50 was 0.106 µM (active).

And the GI50 [13]?
The GI50 was > 100 µM (inactive).

What about the GI50 [14] of the same compound?
Its GI50 is > 100 µM (inactive).

And the GI50 [15]?
Its GI50 is > 100 µM (inactive).

And the GI50 [16]?
Its GI50 is > 100 µM (inactive).

What about the GI50 [17] of the same compound?
Its GI50 is > 100 µM (inactive).

What about the GI50 [18] of the same compound?
Its GI50 is > 100 µM (inactive).

And the GI50 [19]?
Its GI50 is > 100 µM (inactive).

What about the GI50 [20] of the same compound?
The GI50 was > 100 µM (inactive).
